Assays:
[1] = target: Bifunctional 3'-5' exonuclease/ATP-dependent helicase WRN (Homo sapiens, UniProt Q14191); experiment: ADP-Glo Kinase Assay
Description: ATPase activity was measured using the ADP-Glo Kinase Assay following the manufacturers recommended protocol.

[2] = target: T1, Bifunctional 3'-5' exonuclease/ATP-dependent helicase WRN [480-1251] (UniProt Q14191); experiment: Biochemical Activity Assays
T1 construct: 480-1251
T1 sequence (Q14191 480-1251): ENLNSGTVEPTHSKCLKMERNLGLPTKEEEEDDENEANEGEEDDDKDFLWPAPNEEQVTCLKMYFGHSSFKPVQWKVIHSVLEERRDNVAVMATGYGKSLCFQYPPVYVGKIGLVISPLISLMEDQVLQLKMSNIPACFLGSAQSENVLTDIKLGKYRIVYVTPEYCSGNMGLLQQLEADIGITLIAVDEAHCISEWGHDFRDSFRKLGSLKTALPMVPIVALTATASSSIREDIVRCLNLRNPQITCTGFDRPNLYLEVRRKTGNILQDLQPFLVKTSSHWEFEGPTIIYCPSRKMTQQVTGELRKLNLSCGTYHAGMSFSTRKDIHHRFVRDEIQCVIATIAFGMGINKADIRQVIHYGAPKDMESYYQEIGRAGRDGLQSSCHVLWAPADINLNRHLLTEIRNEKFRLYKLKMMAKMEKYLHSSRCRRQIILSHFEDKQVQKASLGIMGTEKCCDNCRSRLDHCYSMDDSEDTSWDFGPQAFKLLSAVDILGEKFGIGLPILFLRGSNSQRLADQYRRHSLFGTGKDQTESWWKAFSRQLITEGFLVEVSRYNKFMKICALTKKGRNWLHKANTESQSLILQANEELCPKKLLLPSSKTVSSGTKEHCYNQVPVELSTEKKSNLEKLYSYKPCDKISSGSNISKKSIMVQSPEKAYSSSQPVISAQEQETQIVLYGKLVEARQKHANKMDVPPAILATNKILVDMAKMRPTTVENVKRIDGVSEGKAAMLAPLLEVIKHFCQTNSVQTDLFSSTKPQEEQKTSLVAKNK

Bifunctional 3'-5' exonuclease/ATP-dependent helicase WRN, sequence (Q14191 whole entry): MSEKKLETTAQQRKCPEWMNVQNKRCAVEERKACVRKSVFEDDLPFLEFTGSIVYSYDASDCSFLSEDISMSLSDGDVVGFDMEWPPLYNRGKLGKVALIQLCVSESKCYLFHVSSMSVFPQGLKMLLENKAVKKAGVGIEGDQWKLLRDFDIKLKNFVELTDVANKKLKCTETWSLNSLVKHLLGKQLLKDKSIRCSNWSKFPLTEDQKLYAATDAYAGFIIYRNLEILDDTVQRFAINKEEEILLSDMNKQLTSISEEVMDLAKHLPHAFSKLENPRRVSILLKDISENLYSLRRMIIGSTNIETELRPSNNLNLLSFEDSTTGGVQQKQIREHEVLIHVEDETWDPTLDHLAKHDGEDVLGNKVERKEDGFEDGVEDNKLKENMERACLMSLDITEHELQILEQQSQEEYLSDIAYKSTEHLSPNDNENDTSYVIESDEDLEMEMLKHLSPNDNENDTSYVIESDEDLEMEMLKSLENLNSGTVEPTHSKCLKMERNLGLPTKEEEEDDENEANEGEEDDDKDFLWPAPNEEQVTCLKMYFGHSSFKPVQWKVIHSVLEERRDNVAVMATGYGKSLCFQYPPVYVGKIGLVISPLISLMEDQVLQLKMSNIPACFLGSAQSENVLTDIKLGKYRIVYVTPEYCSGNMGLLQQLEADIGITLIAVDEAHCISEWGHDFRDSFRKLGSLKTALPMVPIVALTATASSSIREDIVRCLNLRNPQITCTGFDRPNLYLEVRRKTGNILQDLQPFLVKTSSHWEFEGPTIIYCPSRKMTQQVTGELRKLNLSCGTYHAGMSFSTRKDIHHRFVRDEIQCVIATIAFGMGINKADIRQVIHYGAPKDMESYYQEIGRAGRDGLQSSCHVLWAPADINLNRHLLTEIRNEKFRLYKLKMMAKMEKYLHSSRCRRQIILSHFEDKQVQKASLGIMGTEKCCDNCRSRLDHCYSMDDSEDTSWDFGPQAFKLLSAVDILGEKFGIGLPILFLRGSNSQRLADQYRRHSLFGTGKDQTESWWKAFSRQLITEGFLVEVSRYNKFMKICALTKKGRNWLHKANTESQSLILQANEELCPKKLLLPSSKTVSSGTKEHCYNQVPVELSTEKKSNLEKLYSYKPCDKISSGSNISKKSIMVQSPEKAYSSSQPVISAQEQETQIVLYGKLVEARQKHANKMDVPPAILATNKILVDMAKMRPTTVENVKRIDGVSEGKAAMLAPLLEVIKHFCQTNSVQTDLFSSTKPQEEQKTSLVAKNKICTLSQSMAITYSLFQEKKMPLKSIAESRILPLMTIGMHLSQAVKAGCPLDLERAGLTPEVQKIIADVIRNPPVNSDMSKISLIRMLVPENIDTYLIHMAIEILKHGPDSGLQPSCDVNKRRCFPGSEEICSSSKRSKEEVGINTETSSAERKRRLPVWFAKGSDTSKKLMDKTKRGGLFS

Structure (SMILES)	IC50 [1] [nM]	IC50 [2] [nM]
CCc1c(N2CCN(C(=O)c3ncnc(C)c3O)CC2)c(=O)n2nc(-c3cc4ccnn4cc3F)nc2n1CC(=O)Nc1ccc(C(F)(F)F)cc1Cl [WO2025049746, Example 242]	19	18
CCc1c(N2CCN(C(=O)c3ncnc(C)c3O)CC2)c(=O)n2nc(-c3ccc4c(c3)CCOC4)nc2n1CC(=O)Nc1ccc(C(F)(F)F)c2c1CC2 [WO2025049746, Example 98]	30.8	23.9
CCc1c(N2CCN(C(=O)c3nccc4nc[nH]c34)CC2)c(=O)n2nc(-c3ccc4c(c3)COC4(C)C)nc2n1CC(=O)Nc1ccc(C(F)(F)F)cc1Cl [WO2025049746, Example 456]	57	55
CCc1c(N2CCN(C(=O)c3ncnc(C)c3O)CC2)c(=O)n2nc(-c3ccc4nn(CC(F)F)cc4c3)nc2n1CC(=O)Nc1ccc(C(F)(F)F)cc1Cl [WO2025049746, Example 292]	28	29
CCc1c(N2CCN(C(=O)c3ncnc(C)c3O)CC2)c(=O)n2nc(-c3ccc4c(c3)OC(F)(F)O4)nc2n1CC(=O)Nc1ccc(C(F)(F)F)cc1Cl [WO2025049746, Example 179]	77	59
CCc1c(N2CCN(C(=O)c3ccnc4cc[nH]c34)CC2)c(=O)n2nc(C3=CCOCC3)nc2n1CC(=O)Nc1ccc(C(F)(F)F)cc1Cl [WO2025049746, Example 46]	52.1	36
CCc1c(N2CCN(C(=O)c3nccc4nc[nH]c34)CC2)c(=O)n2nc(-c3ccc4c(c3)CCOC4)nc2n1CC(=O)Nc1ccc(C(F)(F)F)cc1Cl [WO2025049746, Example 92]	27.9	23
CCc1c(N2CCN(C(=O)c3ncnc(C)c3O)CC2)c(=O)n2nc(-c3ccc4c(c3)CN(C)C4=O)nc2n1CC(=O)Nc1ccc(C(F)(F)F)cc1Cl [WO2025049746, Example 185]	32	26
CCc1c(N2CCN(C(=O)c3ncnc(C)c3O)CC2)c(=O)n2nc(-c3ccc4c(c3)CCOC4)nc2n1CC(=O)Nc1ccc(C(F)(F)F)cc1Cl [WO2025049746, Example 3]	41.2	34.4
CCc1c(N2CCN(C(=O)c3ncnc(C)c3O)CC2)c(=O)n2nc(-c3ccc4c(c3)COC43CCC3)nc2n1CC(=O)Nc1ccc(C(F)(F)F)cc1Cl [WO2025049746, Example 215]	48	46
CCc1c(N2CCN(C(=O)c3nocc3O)CC2)c(=O)n2nc(-c3ccc4c(c3)COC4)nc2n1CC(=O)Nc1ccc(C(F)(F)F)cc1Cl [WO2025049746, Example 446]	20	20
CCc1c(N2CCN(C(=O)c3ncnc(C)c3O)CC2)c(=O)n2nc(-c3ccc4c(c3)COC4)nc2n1CC(=O)Nc1ccc(C2(C(F)(F)F)CC2)cc1Cl [WO2025049746, Example 420]	100	65
CCc1c(N2CCN(C(=O)c3ncnc(C)c3O)CC2)c(=O)n2nc(-c3ccc4c(c3)COC4)nc2n1CC(=O)Nc1c(Cl)cc(C(F)(F)F)c2ccoc12 [WO2025049746, Example 447]	38	38
CCc1c(N2CCN(C(=O)c3ncnc(C)c3O)CC2)c(=O)n2nc(-c3cc(F)c4c(c3)COC4)nc2n1CC(=O)Nc1ccc(C(F)(F)F)cc1Cl [WO2025049746, Example 202]	40	32
CCc1c(N2CCN(C(=O)c3ncnc(N4CC(OC)C4)c3O)CC2)c(=O)n2nc(-c3ccc4c(c3)COC4)nc2n1CC(=O)Nc1ccc(C(F)(F)F)cc1Cl [WO2025049746, Example 415]	3	1
CCc1c(N2CCN(C(=O)c3ncnc(C)c3O)CC2)c(=O)n2nc(-c3cc4ccnn4cc3C)nc2n1CC(=O)Nc1ccc(C(F)(F)F)cc1Cl [WO2025049746, Example 243]	26	34
CCc1c(N2CCN(C(=O)c3ncnc(C)c3O)CC2)c(=O)n2nc(-c3ccc4c(c3)COC43COC3)nc2n1CC(=O)Nc1ccc(C(F)(F)F)cc1Cl [WO2025049746, Example 278]	31	36

From BindingDB's records for patent WO2025049746 (Eikon Therapeutics, 2025)
